Reference: the NIST ThermoML archive (doi:10.1021/je060501l)
Numbers after ± are expanded uncertainties.

Settings: Liquid

Row | SMILES | vapor or sublimation pressure (273.15 K) | vapor or sublimation pressure (283.15 K) | vapor or sublimation pressure (293.15 K) | vapor or sublimation pressure (303.15 K) | vapor or sublimation pressure (313.15 K)
1 | CC(F)F [1,1-difluoroethane] | 265.8 ± 8.6 kPa | 372.8 ± 12 kPa | 513.3 ± 16 kPa | 689.9 ± 22 kPa | 909.4 ± 28 kPa
2 | CCC [propane] | 472.5 ± 15 kPa | 633.9 ± 20 kPa | 832.94 ± 26 kPa | 1077 ± 34 kPa | 1370 ± 43 kPa
